Measurements from patent US20140256945A1, “PHOSPHONIC ACID COMPOUNDS AS SPHINGOSINE-1-PHOSPHATE RECEPTOR MODULATORS” (Allergan, Inc., priority 2013, published 2014).

The molecules below were run against T1, human S1P1 receptor (Homo sapiens, UniProt P21453) (assay: GTP γ35S binding assay for S1P1 activity). Conditions: membranes of cells stably expressing S1P1 receptor, agonist potency.
T1 construct: expressed in transfected cells; membranes used
T1 sequence (P21453 whole entry): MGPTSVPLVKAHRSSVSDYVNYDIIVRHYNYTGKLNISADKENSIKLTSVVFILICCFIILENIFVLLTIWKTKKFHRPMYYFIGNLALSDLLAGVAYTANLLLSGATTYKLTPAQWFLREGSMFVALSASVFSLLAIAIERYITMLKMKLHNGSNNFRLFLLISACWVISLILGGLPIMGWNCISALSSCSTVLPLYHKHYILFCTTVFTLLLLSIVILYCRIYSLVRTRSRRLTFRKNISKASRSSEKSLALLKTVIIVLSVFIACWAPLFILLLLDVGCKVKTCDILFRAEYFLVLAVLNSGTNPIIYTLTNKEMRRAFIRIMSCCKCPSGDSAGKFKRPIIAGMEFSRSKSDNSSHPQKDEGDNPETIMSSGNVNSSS
Format: biochemical
Method: Compounds were tested for S1P1 activity using the GTP γ^35S binding assay. These compounds may be assessed for their ability to activate or block activation of the human S1P1 receptor in cells stably expressing the S1P1 receptor.
GTP γ^35S binding was measured in the medium containing (mM) HEPES 25, pH 7.4, MgCl2 10, NaCl 100, dithitothreitol 0.5, digitonin 0.003%, 0.2 nM GTP γ^35S, and 5 μg membrane protein in a volume of 150 μl. Test compounds were included in the concentration range from 0.08 to 5,000 nM unless indicated otherwise. Membranes were incubated with 100 μM 5′-adenylylimmidodiphosphate for 30 min, and subsequently with 10 μM GDP for 10 min on ice. Drug solutions and membrane were mixed, and then reactions were initiated by adding GTP γ^35S and continued for 30 min at 25° C. Reaction mixtures were filtered over Whatman GF/B filters under vacuum, and washed three times with 3 mL of ice-cold buffer (HEPES 25, pH7.4, MgCl2 10 and NaCl 100). Filters were dried and mixed with scintillant, and counted for ^35S activity using a β-counter. Agonist-induced GTP γ^35S binding was obtained by subtracting that in the absence of agonist. Binding data were analyzed using a non-linear regression method. In case of antagonist assay, the reaction mixture contained 10 nM S1P in the presence of test antagonist at concentrations ranging from 0.08 to 5000 nM.
Work on `O=P(O)(O)CCCNCc1ccc(CCCCCCc2ccccc2)c(C(F)(F)F)c1` [Compound 7, (3-{[4-(6-phenylhexyl)-3-(trifluoromethyl)benzyl]amino}propyl)phosphonic acid] yielded an EC50 of 11.2 nM. With `Cc1cc(CNCCCP(=O)(O)O)ccc1C#CCCCCc1ccccc1` [Compound 2, (3-{[3-methyl-4-(6-phenylhex-1-yn-1-yl)benzyl]amino}propyl)phosphonic acid] the EC50 was 3.4 nM. With `O=P(O)(O)CCCNCc1ccc(C#CCCCCc2ccccc2)c(F)c1` [Compound 1, (3-{[3-fluoro-4-(6-phenylhex-1-yn-1-yl)benzyl]amino}propyl)phosphonic acid] the EC50 was 4.3 nM. With `O=P(O)(O)CCCNCc1ccc(C#CCCCCc2ccccc2)c(Br)c1` [Compound 4, (3-{[3-bromo-4-(6-phenylhex-1-yn-1-yl)benzyl]amino}propyl)phosphonic acid] the EC50 was 22.1 nM. For `O=P(O)(O)CCCNCc1ccc(C#CCCCCc2ccccc2)cc1` [Compound 3, (3-{[4-(6-phenylhex-1-yn-1-yl)benzyl]amino}propyl)phosphonic acid], the EC50 was 26.7 nM. `O=P(O)(O)CCCNCc1ccc(CCCCCCc2ccccc2)c(F)c1` [Compound 5, (3-{[3-fluoro-4-(6-phenylhexyl)benzyl]amino}propyl)phosphonic acid] was tested, and the EC50 was 4.2 nM. Molecule `O=P(O)(O)CCCNCc1ccc(CCCCCCc2ccccc2)cc1` [Compound 9, (3-{[4-(6-phenylhexyl)benzyl]amino}propyl)phosphonic acid] has an EC50 of 6.8 nM. `O=P(O)(O)CCCNCc1cc(F)c(CCCCCCc2ccccc2)cc1F` [Compound 10, (3-{[2,5-difluoro-4-(6-phenylhexyl)benzyl]amino}propyl)phosphonic acid] gave an EC50 of 1.9 nM. `O=C(CCCCc1ccccc1)Nc1ccc(CNCCCP(=O)(O)O)cc1Br` [Compound 11, [3-({3-bromo-4-[(5-phenylpentanoyl)amino]benzyl}amino)propyl]phosphonic acid] showed an EC50 of 105 nM. For `Cc1cc(CNCCCP(=O)(O)O)ccc1CCCCCCc1ccccc1` [Compound 6, (3-{[3-methyl-4-(6-phenylhexyl)benzyl]amino}propyl)phosphonic acid], the EC50 was 0.7 nM. For `O=P(O)(O)CCCNCc1ccc(NCCCCCc2ccccc2)c(Br)c1` [Compound 12, [3-({3-bromo-4-[(5-phenylpentyl)amino]benzyl}amino)propyl]phosphonic acid], the EC50 was 4.1 nM. `O=P(O)(O)CCCNCc1ccc(CCCCCCc2ccccc2)c(Cl)c1` [Compound 8, (3-{[3-chloro-4-(6-phenylhexyl)benzyl]amino}propyl)phosphonic acid] was tested, and the EC50 was 0.5 nM.

The molecules below were run on blood lymphocytes (assay: Lymphopenia Assay in Mice). Conditions: female C57BL6 mice, 0.5 mg/Kg subcutaneous, after 5 hours.
Format: in vivo
Method: Test drugs are prepared in a solution containing 3% (w/v) 2-hydroxy propyl β-cyclodextrin (HPBCD) and 1% DMSO to a final concentration of 1 mg/ml, and subcutaneously injected to female C57BL6 mice (CHARLES RIVERS) weighing 20-25 g at the dose of 0.5 to 10 mg/Kg. Blood samples are obtained by puncturing the submandibular skin with a Goldenrod animal lancet at 5, 24, 48, and 72 hrs post drug application. Blood is collected into microvettes (SARSTEDT) containing EDTA tripotassium salt. Lymphocytes in blood samples are counted using a HEMAVET Multispecies Hematology System, HEMAVET HV950FS (Drew Scientific Inc.). • (Hale, J. et al Bioorg.& Med. Chem. Lett. 14 (2004) 3351).
A lymphopenia assay in mice; as previously described, was employed to measure the in vivo blood lymphocyte depletion after dosing with the test compound (3-{[2,5-difluoro-4-(6-phenylhexyl)benzyl]amino}propyl)phosphonic acid Compound-10. This S1P1 modulator, (3-{[2,5-difluoro-4-(6-phenylhexyl)benzyl]amino}propyl)phosphonic acid Compound-10 is useful for S1P-related diseases and exemplified by the lymphopenia in vivo response. […] Lymphocytes in blood samples were counted using a HEMAVET Multispecies Hematology System, HEMAVET HV950FS (Drew Scientific Inc.). […]
With `O=P(O)(O)CCCNCc1cc(F)c(CCCCCCc2ccccc2)cc1F` [Compound 10, (3-{[2,5-difluoro-4-(6-phenylhexyl)benzyl]amino}propyl)phosphonic acid] the “lymphocyte count (number of lymphocytes)” value was < 1 10^3/μL blood.

Same assay, conditions: mice, 0.5 mg/kg, 5, 24, 48, 72 hours (FIG. 1)
For `O=P(O)(O)CCCNCc1cc(F)c(CCCCCCc2ccccc2)cc1F` [Compound 10, (3-{[2,5-difluoro-4-(6-phenylhexyl)benzyl]amino}propyl)phosphonic acid], the Lymphopenia was “Lymphopenia was induced”.
